Assay results taken from patent US7183267B2, “β-lactamase inhibitors and methods of use thereof” (priority 2003, dated 2007).

What was measured:
[1] = target: T1, AmpC β-lactamase (Escherichia coli, UniProt P00811); assay: AmpC β-lactamase competitive inhibition assay (nitrocefin hydrolysis); format: biochemical
T1 construct: made in house; host or cells: E. coli BL21 (DE3)
Experimental: The gene for AmpC β-lactamase (accession number P00811) was obtained from Escherichia coli K12 strain W3110 (American Type Culture Collection, Rockville Md.). E. coli was grown and plasmid (F-lacIq lacPL8 ampC::lambdacI+) was isolated via Qiagen (Valencia, Calif.) mini prep. The gene for AmpC was amplified in two pieces via polymerase chain reaction, ligated and purified by agarose gel electrophoresis. The ligated gene was inserted into a pET200 vector via a TOPO reaction (Invitrogen, Carlsbad, Calif.).
BL21 (DE3) (Invitrogen) cells were transformed by heat-shock with the prepared plasmid. These cells were grown to an OD600 of 0.8 at 37° C. Isopropylthiogalactoside (IPTG) was added to 1 mM, incubation temperature decreased to 25° C. and the cells were grown for an additional 18 hours. After 18 hours, the E. coli was pelleted by centrifugation, and discarded. The growth media was concentrated and dialyzed versus 100 mM Tris, pH 7.0. This solution was run through an equilibrated Q-resin column, and washed with excess 100 mM Tris, pH 7.0.
(§1) The competitive inhibition of β-lactamase was determined spectrophotometrically using a Varian (Walnut Creek, Calif.) Cary 100 UV-Visible spectrophotometer. β-lactamase activity was followed by measuring the hydrolysis of nitrocefin, [3-(2,4-dinitrostyryl)-(6R, 7R)-7-(2-thienylacetamido)-ceph-3-em-4-carboxylic acid, E-isomer], (Calbiochem, San Diego, Calif.) at 486 nm. Inhibition assays were performed at 25° C. in 50 mM sodium phosphate, 5% DMSO, pH 7.0. […] Penicillin G (Sigma, St. Louis, Mo.) was also used as a substrate to determine KM and kcat.
(§2) Inhibitor was added to protein and incubated for ten minutes before the addition of substrate. Inhibition constants were determined by measuring the loss of P-lactamase activity with increasing inhibitor concentrations and fitting the data to standard equations for competitive inhibition.

[2] = target: T2, TEM-1 β-lactamase (Escherichia coli, UniProt P62593); assay: TEM-1 β-lactamase inhibition assay (nitrocefin hydrolysis, 486 nm); format: biochemical
T2 sequence (P62593 24-286 limits assumed): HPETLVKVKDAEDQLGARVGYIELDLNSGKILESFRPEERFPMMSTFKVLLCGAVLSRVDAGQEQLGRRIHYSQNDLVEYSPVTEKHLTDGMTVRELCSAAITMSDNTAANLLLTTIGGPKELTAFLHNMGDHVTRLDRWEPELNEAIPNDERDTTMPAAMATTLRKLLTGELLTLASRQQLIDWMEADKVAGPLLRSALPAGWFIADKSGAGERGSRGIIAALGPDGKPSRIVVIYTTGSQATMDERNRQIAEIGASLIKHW
Experimental: The inhibition of TEM-1 β-lactamase was determined spectrophotometrically. B-lactamase activity was followed by measuring the hydrolysis of nitrocefin, [3-(2,4-dinitrostyryl)-(6R, 7R)-7-(2-thienylacetamido)-ceph-3-em-4-carboxylic acid, E-isomer], (Calbiochem, San Diego, Calif., USA) at 486 nm. Inhibition assays were performed at 25° C. in 50 mM sodium phosphate, 5% DMSO, pH 7.0. […] Inhibitor was added to the enzyme and incubated for ten minutes before the addition of substrate. Inhibition constants (Ki) for the inhibitors are obtained at the desired temperature and solvent conditions by measuring the rate of substrate hydrolysis at increasing amounts of inhibitors.
as §1, §2
(§3) These methods can also be used to express and assay recombinant TEM-1 variant of β-lactamase.

[3] = target: T1, AmpC β-lactamase; details: binding to AmpC; ITC
Experimental: (§4) Isothermal titration calorimetry was performed on a high-precision VP-ITC titration calorimeter (Microcal Inc., Northampton, Mass.). β-Lactamase solutions were titrated with inhibitors in 50 mM sodium phosphate, 2% DMSO, pH 7.0, with β-lactamase concentrations ranging from 15 to 25 μM and inhibitor concentrations ranging from 300 to 1000 μM. The heat evolved from each injection was obtained by integrating the calorimetric signal. Heat of binding was obtained as the difference between the heat of reaction and the heat of inhibitor dilution. Data were analyzed using Origin 7.0 (OriginLab Corporation, Northampton, Mass.).
Isothermal titration calorimetry was undertaken to determine the thermodynamic characteristics of binding to AmpC β-lactamase.

[4] = target: T2, TEM-1 β-lactamase; assay: Isothermal titration calorimetry, binding to TEM-1 β-lactamase (Example 17); details: ITC
Experimental: as §4, §3
Also shown are the results obtained for β-lactamase variant TEM-1.

[5] = Ki, 25° C., 50 mM sodium phosphate, 5% DMSO, pH 7.0, enzyme 5 nM, nitrocefin 167 μM
[6] = Ki from Lineweaver-Burke Analysis, values in parenthesis, Lineweaver-Burke analysis

T1 sequence (P00811 20-377): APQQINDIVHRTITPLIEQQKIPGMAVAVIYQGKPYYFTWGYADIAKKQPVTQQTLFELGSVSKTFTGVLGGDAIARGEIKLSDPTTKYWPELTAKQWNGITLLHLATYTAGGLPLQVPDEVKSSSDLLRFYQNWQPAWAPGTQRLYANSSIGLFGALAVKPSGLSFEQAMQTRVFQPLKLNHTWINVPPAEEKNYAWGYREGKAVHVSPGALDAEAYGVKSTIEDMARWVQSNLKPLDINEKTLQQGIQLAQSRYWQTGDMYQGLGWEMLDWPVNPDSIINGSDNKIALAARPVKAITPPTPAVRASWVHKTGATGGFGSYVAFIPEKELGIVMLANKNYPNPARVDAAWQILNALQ

Q: For `O=C(Oc1c(Cl)cccc1[N+](=O)[O-])c1ccc(B(O)O)cc1F` [(8a), 4-(2-Chloro-6-nitrophenoxycarbonyl)-3-fluorophenylboronic acid], which Ki [1] is on record?
A: 0.913 µM

Q: And the Ki [2, 5]?
A: 43 ± 1.6 µM

Q: And the ΔG [3]?
A: -8.19 kcal/mol

Q: What about the ΔH [3] of the same compound?
A: -8.486 kcal/mol

Q: And the “−TΔS” value [3]?
A: 0.296 kcal/mol

Q: `COc1ccccc1OC(=O)c1cc(B(O)O)cc([N+](=O)[O-])c1` [Compound (1l), 3-(2-Methoxylphenoxycarbonyl)-5-nitrophenylboronic acid] was tested. Which Ki [2, 5] did it give?
A: 116 ± 7 µM

Q: What does the source list for `O=C(OCc1c(Cl)cccc1Cl)c1cc(B(O)O)cc([N+](=O)[O-])c1` [Compound (3a), 3-(2,6-Dichlorobenzyloxycarbonyl)-5-nitrophenylboronic]?
A: Ki [2, 6]: 4.97 µM; Ki [2, 5]: 34 ± 2.9 µM

Q: Which results are given for `O=C(Oc1ccc(OC(=O)c2ccc(B(O)O)cc2F)c(Cl)c1)c1ccc(B(O)O)cc1F` [Compound (7a), 4-Borono-2-fluorobenzoic acid 2-chloro-1,4-phenylene ester]?
A: Ki [1]: 0.873 µM; Ki [2, 5]: 122 ± 10 µM; ΔG [3]: -7.314 kcal/mol; ΔH [3]: -9.936 kcal/mol; −TΔS [3]: 2.622 kcal/mol

Q: `O=C(Oc1ccncc1)c1cc(B(O)O)cc([N+](=O)[O-])c1` [(1r), 3-(4-pyridyloxycarbonyl)-5-nitro-phenylboronic acid] was tested. Which Ki [2, 5] did it give?
A: 138 ± 2.7 µM

Q: With `O=C(Oc1ccc(F)cc1)c1cc(B(O)O)cc([N+](=O)[O-])c1` [Compound (1q), 3-(4-Fluorophenoxycarbonyl)-5-nitrophenylboronic acid] as the compound, how does the Ki [2, 5] read?
A: 100 ± 8 µM

Q: With `Cc1cccc(OC(=O)c2cc(B(O)O)cc([N+](=O)[O-])c2)c1` [(1m), 3-(3-Methylphenoxycarbonyl)-5-nitrophenylboronic acid] as the compound, how does the Ki [2, 5] read?
A: 114 ± 12 µM

Q: For `Cc1ccccc1OC(=O)c1cc(B(O)O)cc([N+](=O)[O-])c1` [Compound (1k), 3-(2-Methylphenoxycarbonyl)-5-nitro-phenylboronic acid], which Ki [2, 5] is on record?
A: 130 ± 18 µM

Q: `CCOC(=O)c1ccc(OC(=O)c2cc(B(O)O)cc([N+](=O)[O-])c2)cc1` [Compound (1e), 3-(4-Ethoxycarbonylphenoxycarbonyl)-5-nitrophenylboronic acid] was tested. Which Ki [2, 5] did it give?
A: > 1000 µM

Q: With `O=C(Oc1ccc(OC(=O)c2cc(B(O)O)cc([N+](=O)[O-])c2)cc1)c1cc(B(O)O)cc([N+](=O)[O-])c1` [Compound (2a), 3-Borono-5-nitrobenzoic acid 1,4-phenylene ester] as the compound, how does the ΔG [4] read?
A: -7.451 kcal/mol

Q: What about the ΔH [4] of the same compound?
A: 0.274 kcal/mol

Q: What about the “−TΔS” value [4] of the same compound?
A: -7.725 kcal/mol

Q: And the Ki [2, 5]?
A: 22.7 ± 1.3 µM

Q: And the Ki ([2]; Ki, TEM-1 β-lactamase)?
A: 22.7 µM

Q: What does the source list for `O=C(OCc1cccc([N+](=O)[O-])c1)c1cc(B(O)O)cc([N+](=O)[O-])c1` [Compound (3b), 3-(3-Nitrobenzyloxycarbonyl)-5-nitrophenylboronic acid]?
A: Ki [2, 6]: 2.76 µM; Ki [2, 5]: 27 ± 3.4 µM

Q: With `O=C(Oc1cccnc1Cl)c1cc(B(O)O)cc([N+](=O)[O-])c1` [Compound (1s), 3-(2-Chloro-3-pyridyloxycarbonyl)-5-nitrophenylboronic acid] as the compound, how does the Ki [2, 5] read?
A: 42.3 ± 2.4 µM

Q: Which ΔG [4] does the source give for `O=C(Oc1cccc(OC(=O)c2cc(B(O)O)cc([N+](=O)[O-])c2)c1)c1cc(B(O)O)cc([N+](=O)[O-])c1` [Compound (9a), 3-Borono-5-nitrobenzoic acid 1,3-phenylene ester] here?
A: -7.864 kcal/mol

Q: And the ΔH [4]?
A: 0.446 kcal/mol

Q: And the “−TΔS” value [4]?
A: -8.31 kcal/mol

Q: What about the Ki [2, 5] of the same compound?
A: 16 ± 1.5 µM

Q: And the Ki ([2]; Ki, TEM-1 β-lactamase)?
A: 16.2 µM

Q: Which results are given for `O=C(OCc1cccc(Cl)c1)c1cc(B(O)O)cc([N+](=O)[O-])c1` [Compound (3c), 3-(3-Chlorobenzyloxycarbonyl)-5-nitrophenylboronic acid]?
A: Ki [2, 6]: 2.35 µM; Ki [2, 5]: 25 ± 1.5 µM

Q: With `O=C(Oc1c(F)cccc1F)c1cc(B(O)O)cc([N+](=O)[O-])c1` [Compound (1p), 3-(2,6-Difluorophenoxycarbonyl)-5-nitrophenylboronic acid] as the compound, how does the ΔG [4] read?
A: -5.916 kcal/mol

Q: What about the ΔH [4] of the same compound?
A: -6.715 kcal/mol

Q: What about the “−TΔS” value [4] of the same compound?
A: 0.799 kcal/mol

Q: What about the Ki [2, 5] of the same compound?
A: 19.8 ± 1.3 µM

Q: What about the Ki ([2]; Ki, TEM-1 β-lactamase) of the same compound?
A: 19.8 µM

Q: What does the source list for `O=C(Oc1c(Cl)cccc1Cl)c1cc(B(O)O)cc([N+](=O)[O-])c1` [Compound (1n), 3-(2,6-Dichlorophenoxycarbonyl)-5-nitrophenylboronic acid]?
A: ΔG [4]: -5.608 kcal/mol; ΔH [4]: -1.173 kcal/mol; −TΔS [4]: -4.435 kcal/mol; Ki [2, 6]: 0.62 µM; Ki [2, 5]: 8.8 ± 0.5 µM; Ki ([2]; Ki, TEM-1 β-lactamase): 8.8 µM

Q: Which Ki [2, 5] does the source give for `O=C(OCc1ccccc1)c1ccc(B(O)O)cc1` [Compound F1002] here?
A: 148 µM

Q: `OB(O)c1cccc2c1Sc1ccccc1S2` [Compound F1012] was tested. Which Ki [2, 5] did it give?
A: 113 µM

Q: With `O=C(Oc1c(Cl)cc(Cl)cc1[N+](=O)[O-])c1cc(B(O)O)cc([N+](=O)[O-])c1` [Compound (1w), 3-(2,4-Dichloro-6-nitro-phenoxycarbonyl)-5-nitro-phenylboronic acid] as the compound, how does the ΔG [4] read?
A: -6.409 kcal/mol

Q: What about the ΔH [4] of the same compound?
A: -4.554 kcal/mol

Q: What about the “−TΔS” value [4] of the same compound?
A: -1.855 kcal/mol

Q: And the Ki [2, 5]?
A: 13 ± 1.1 µM

Q: What about the Ki ([2]; Ki, TEM-1 β-lactamase) of the same compound?
A: 12.7 µM

Q: How did the Ki [2, 5] turn out when `CC(C)(C)OC(=O)Oc1cccc(B(O)O)c1` [Compound BB-1004] was run?
A: 297 µM

Q: Which results are given for `O=C(OCc1cccc(B(O)O)c1)c1cc(O)cc(B(O)O)c1` [Compound (3g), 3-(3-Boronobenzyloxycarbonyl)-5-hydroxylphenylboronic acid]?
A: Ki [1]: 2.69 µM; ΔG [3]: -7.356 kcal/mol; ΔH [3]: -3.677 kcal/mol; −TΔS [3]: -3.679 kcal/mol

Q: `O=C(c1cccc(B(O)O)c1)N1CCCC1` [Compound BB-1005] was tested. Which Ki [2, 5] did it give?
A: 392 µM

Q: Which results are given for `O=C(OCc1cccc2ccccc12)c1cc(B(O)O)cc([N+](=O)[O-])c1` [Compound (3e), 3-(1-Naphthalenemethoxycarbonyl)-5-nitrophenylboronic acid]?
A: ΔG [4]: -6.164 kcal/mol; ΔH [4]: 0.224 kcal/mol; −TΔS [4]: -6.388 kcal/mol; Ki ([2]; Ki, TEM-1 β-lactamase): 17.1 µM

Q: Which Ki [1] does the source give for `O=C(Oc1cccc(B(O)O)c1)c1ccc(C(=O)Oc2cccc(B(O)O)c2)cc1` [Compound (11a), 1,4-Benzenedicarboxylic Acid, di 3-boronophenyl ester] here?
A: 1.31 µM

Q: And the ΔG [3]?
A: -7.548 kcal/mol

Q: What about the ΔH [3] of the same compound?
A: -3.114 kcal/mol

Q: And the “−TΔS” value [3]?
A: -4.434 kcal/mol

Q: For `CCCCOC(=O)c1cccc(B(O)O)c1` [Compound BB-1003], which Ki [2, 5] is on record?
A: 231 µM

Q: `O=C(Oc1c(Cl)cc(Cl)cc1Cl)c1cc(B(O)O)cc([N+](=O)[O-])c1` [Compound (1y), 3-(2,4,6-Trichlorophenoxycarbonyl)-5-nitro-phenylboronic acid] was tested. Which ΔG [4] did it give?
A: -6.55 kcal/mol

Q: What about the ΔH [4] of the same compound?
A: 0 kcal/mol

Q: What about the “−TΔS” value [4] of the same compound?
A: -6.55 kcal/mol

Q: What about the Ki ([2]; Ki, TEM-1 β-lactamase) of the same compound?
A: 15.8 µM

Q: How did the Ki [2, 5] turn out when `O=C(O)c1cc(NC(=O)c2ccccc2F)cc(B(O)O)c1` [Compound (4a), 3-(2-Fluorobenzamido)-5-carboxylphenylboronic acid] was run?
A: 143 ± 9 µM

Q: How did the Ki [2, 6] turn out when `O=C(Oc1ccccc1Br)c1cc(B(O)O)cc([N+](=O)[O-])c1` [(1u), 3-(2-Bromophenoxycarbonyl)-5-nitro-phenylboronic acid] was run?
A: 1.68 µM

Q: What about the Ki [2, 5] of the same compound?
A: 25 ± 2.5 µM

Q: How did the Ki [2, 5] turn out when `O=C(Oc1ccccc1F)c1cc(B(O)O)cc([N+](=O)[O-])c1` [Compound (1o), 3-(2-Fluorophenoxycarbonyl)-5-nitrophenylboronic acid] was run?
A: 49.3 ± 4.6 µM

Q: For `O=C(Oc1ccccc1)c1cc(B(O)O)cc([N+](=O)[O-])c1` [Compound (1t), 3-Phenoxycarbonyl-5-nitrophenylboronic acid], which Ki [2, 6] is on record?
A: 6.54 µM

Q: And the Ki [2, 5]?
A: 95 ± 8.7 µM

Q: `Nc1cc(B(O)O)cc(C(=O)O)c1` [Compound (5a), 3–5-carboxylphenylboronic acid] was tested. Which Ki [2, 5] did it give?
A: 727 ± 49 µM

Q: Which Ki [1] does the source give for `Nc1cc(B(O)O)cc(C(=O)OCc2cccc(B(O)O)c2)c1` [Compound (3f), 3-(3-Boronobenzyloxycarbonyl)-5-aminophenylboronic acid] here?
A: 0.724 µM

Q: What about the ΔG [3] of the same compound?
A: -8.151 kcal/mol

Q: What about the ΔH [3] of the same compound?
A: -9.325 kcal/mol

Q: And the “−TΔS” value [3]?
A: 1.174 kcal/mol
